Counter-ions that a name gives are not always drawn.
Test system: Y1 mouse adrenal tumor cells
Assay: dbcAMP-induced 20á-hydroxyprogesterone synthesis in Y1 cells
Format: cell-based
Conditions: Y1 cells
Procedure: Culture media were then changed and cells were stimulated with 1 mM dbcAMP and the treatment for 24 to 48 hours. […] The synthesis of 20 —OH progesterone and progesterone in Y1 and MA-10 cell media respectively were measured by RIA (Brown et al., 1992). H295R human adrenal tumor cells were seeded in 48-well plates at 10^5 cells/well and incubated for 24 hours. […] At the end of the incubation time period, cells were treated with 1 mM dbcAMP for 48 hours. Cortisol levels in the media were determined by radioimmunoassay as previously described (Amri et al., 1996).

CCN(CC)CCOC(=O)c1ccc(N)cc1 [SP01, procaine HCl]
effect on dbcAMP-induced 20á-hydroxyprogesterone production: decreased in a dose-dependent manner
lowest concentration inhibiting cAMP-induced steroid synthesis: 0.1 µM
inhibition of dbcAMP-stimulated steroid formation (procaine at 1 M / 1 iM): 90%

Reference: patent US20060194814A1, “Benzamide compounds” (priority 2003, published 2006)
